Measurements published in US20170143647A1, “INTESTINAL FLORA IMPROVING COMPOSITION CONTAINING ASTAXANTHIN AND ITS USE” (THE DOSHISHA, priority 2013, published 2017).
“Also recorded” adds a separate entry of the source.

What was measured:
[1] = Change in body weight of mice fed ordinary or high-fat diet with or without astaxanthin; assay type: in vivo, ICR mice; details: 0.02% astaxanthin in ordinary or high-fat diet, weight measured once a week
Experimental: (§1) The test substance (astaxanthin) was added to an ordinary diet (“Labo MR Stock” manufactured by Nosan Corporation (Nishi-ku, Yokohama)) and a high-fat diet (“HFD-60” Oriental Yeast Co., Ltd. (Itabashi-ku, Tokyo)) so that the content thereof was 0.02%.
(§2) A commercially-available product “AstaReal Oil 50F” (manufactured by Fuji Chemical Industries Co., Ltd.) was used as astaxanthin.
(§3) Twenty 4-week-old ICR mice were respectively kept in different cages, and habituated for 1 week.
(§4) After completion of habituation, the weight of each mouse was measured, and the mice were divided into an ordinary diet group (group C), an ordinary diet+astaxanthin group (group CA), a high-fat diet group (group H), and a high-fat diet+astaxanthin group (group HA) (five mice per group).
The diet was fed to each group from Day 1, and the weight of each mouse was measured once a week.
The ordinary diet was fed once a week, and the high-fat diet was fed every other day (the high-fat diet was returned to room temperature on the day before the feeding).
The mean value of each group was analyzed by Tukey's multiple comparison test.

[2] = tested on: Lactobacillus group (lactic acid bacteria); assay: Real-time PCR of fecal DNA, Lactobacillus group; assay type: in vivo, ICR mice
Experimental: (§5) A change in intestinal flora when a high-fat diet was fed to mice, and the effect of astaxanthin on intestinal flora were determined using a real-time PCR method.
as §1, §2, §3
(§6) After completion of habituation, the weight of each mouse was measured, and the mice were divided into an ordinary diet group (group C), an ordinary diet+astaxanthin group (group CA), a high-fat diet group (group H), and a high-fat diet+astaxanthin group (group HA) (five mice per group). […]
(§7) The DNA solution was 100-fold diluted (Lactobacillus, Streptococcus, Clostridium coccoides, and Clostridium leptum), and the final concentration was adjusted to […] (other targets). […] The primer sequence was analyzed using the method of Matsuki et al. or Endo et al. […]
(§8) Regarding a comparison as to the presence or absence of astaxanthin, the bacterial count change ratio was analyzed by Mann-Whitney's U test (one-sided test).

Clostridium leptum group = assay: Real-time PCR of fecal DNA, Clostridium leptum group; assay type: in vivo, ICR mice; details: group HA vs group H
Experimental: as §5, §1, §2, §3, §4
(§9) The feces of the mice were collected over 24 hours on the final day of habituation (Day 0). […]
as §7
(§10) The mean value of each group was analyzed by Tukey's multiple comparison test. […]

[3] = eight-week treatment; cited from earlier work
[4] = tested on: Clostridium coccoides group; assay: Real-time PCR of fecal DNA, Clostridium coccoides group; assay type: in vivo, ICR mice
Experimental: as §5, §1, §2, §3, §6, §7, §8

[5] = taken orally; cited from earlier work
[6] = tested on: bacteria that belong to the genus Bacteroides; assay: Real-time PCR of fecal DNA, genus Bacteroides; assay type: in vivo, ICR mice; details: group HA (high-fat diet + astaxanthin), Day 14, FIG. 9
Experimental: as §5, §1, §2, §3, §4, §9, §7, §10

[7] = tested on: Streptococcus group (lactic acid bacteria); assay: Real-time PCR of fecal DNA, Streptococcus group; assay type: in vivo, ICR mice
Experimental: as §5, §1, §2, §3, §6, §7, §8

intestinal flora = assay: Effect of astaxanthin on intestinal flora of mice fed a high-fat diet (overall); assay type: in vivo; details: intake of astaxanthin, high-fat diet fed to a mouse
Experimental: A change in intestinal flora when a high-fat diet was fed to mice, and the effect of astaxanthin on intestinal flora were determined using a real-time PCR method. The test substance (astaxanthin) was added to an ordinary diet (“Labo MR Stock” manufactured by Nosan Corporation (Nishi-ku, Yokohama)) and a high-fat diet (“HFD-60” Oriental Yeast Co., Ltd. (Itabashi-ku, Tokyo)) so that the content thereof was 0.02%. A commercially-available product “[…] Oil […]” (manufactured by Fuji Chemical Industries Co., Ltd.) was used as astaxanthin. Twenty 4-week-old ICR mice were respectively kept in different cages, and habituated for 1 week. After completion of habituation, the weight of each mouse was measured, and the mice were divided into an ordinary diet group (group C), an ordinary diet+astaxanthin group (group CA), a high-fat diet group (group H), and a high-fat diet+astaxanthin group (group HA) (five mice per group). The DNA solution was 100-fold diluted (Lactobacillus, Streptococcus, Clostridium coccoides, and Clostridium leptum), and the final concentration was adjusted to […] (other targets). […] The primer sequence was analyzed using the method of Matsuki et al. or Endo et al. The real-time PCR assay was performed on Bacteroides, Bifidobacterium (bifidobacteria), Prevotella, Lactobacillus, Streptococcus, Clostridium coccoides, and Clostridium leptum.

Q: Which “change in body weight, groups fed astaxanthin (CA, HA) vs groups not fed astaxanthin (C, H)” value [1] does the source give for `CC1=C(/C=C/C(C)=C/C=C/C(C)=C/C=C/C=C(C)/C=C/C=C(C)/C=C/C2=C(C)C(=O)C(O)CC2(C)C)C(C)(C)CC(O)C1=O` (stereo not drawn) [astaxanthin, 3,3′-dihydroxy-β,β-carotene-4,4′-dione] here?
A: Its value is “No significant difference”.

Q: And the “rate of increase in the bacterial count of the Lactobacillus group” value ([2]; addition of 0.02% astaxanthin to diet, p=0.031)?
A: Its value is “increased”.

Q: What about the “bacterial count of the Lactobacillus group” value ([2]; group C vs CA and group H vs HA, FIG. 4) of the same compound?
A: The value was “increased”.

Q: And the “bacterial count of the Clostridium leptum group” value (Clostridium leptum group; Day 14, p<0.001)?
A: Its value is “temporary increase”.

Q: And the “bacterial count of the Clostridium leptum group” value (Clostridium leptum group; Day 28)?
A: The value was “no significant difference”.

Q: And the “efficacy reported in Non-Patent Literature 1” value [3]?
A: Its value is “enhances the antioxidant potential, decreases blood pressure, and improves constipation and a climacteric complaint”.

Q: What about the “growth of the Clostridium coccoides group” value ([4]; group H vs HA, Day 14 and Day 28, FIG. 7) of the same compound?
A: The value was “suppressed the growth”.

Q: And the “rate of increase in the bacterial count of the Clostridium coccoides group” value ([4]; high-fat diet, addition of astaxanthin, p=0.029)?
A: The value was “decreased”.

Q: And the “astaxanthin absorbed in the small intestine” value [5]?
A: The value was “about 5%”.

Q: What about the “bacterial count of bacteria that belong to the genus Bacteroides” value [6] of the same compound?
A: The value was “did not show such a temporary increase; also recorded: suppressed a temporary increase; also recorded: did not show a significant increase”.

Q: And the “rate of increase in bacterial count of the Streptococcus group, between the high-fat diet groups” value ([7]; group H vs HA, p=0.044)?
A: The value was “significant difference”.

Q: What about the “bacterial count of the Streptococcus group” value ([7]; group HA (high-fat diet + astaxanthin), Day 28) of the same compound?
A: Its value is “comparable to those of the ordinary diet group; also recorded: increased”.

Q: And the “effect on intestinal flora” value (intestinal flora)?
A: The value was “improves intestinal flora; also recorded: controls the disorder of intestinal flora”.
